Experimental data taken from PubChem BioAssay (NCI).
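Five concentrations, 48 hours, 96-well plates. TGI is the concentration that stops growth completely.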

Key:
Assay in all cases: NCI anticancer screen, dose series, 48 h
[1] = test system: 786-0 renal
[2] = test system: A498 renal
[3] = test system: A549 NSCLC
[4] = test system: ACHN renal
[5] = test system: BT-549 breast
[6] = test system: CAKI-1 renal
[7] = test system: CCRF-CEM leukemia
[8] = test system: COLO 205 colon
[9] = test system: DU-145 prostate
[10] = test system: EKVX NSCLC
[11] = test system: HCC-2998 colon
[12] = test system: HCT-116 colon
[13] = test system: HCT-15 colon
[14] = test system: HL-60(TB) leukemia
[15] = test system: HOP-62 NSCLC
[16] = test system: HOP-92 NSCLC
[17] = test system: HS 578T breast
[18] = test system: HT29 colon
[19] = test system: IGROV1 ovarian
[20] = test system: K-562 leukemia
[21] = test system: KM12 colon
[22] = test system: LOX IMVI melanoma
[23] = test system: M14 melanoma
[24] = test system: MALME-3M melanoma
[25] = test system: MDA-MB-231 breast
[26] = test system: MDA-MB-435
[27] = test system: MOLT-4 leukemia
[28] = test system: NCI-H226 lung
[29] = test system: NCI-H23 lung
[30] = test system: NCI-H460 lung
[31] = test system: NCI-H522 lung
[32] = test system: NCI/ADR-RES ovarian
[33] = test system: OVCAR-3 ovarian
[34] = test system: OVCAR-4 ovarian
[35] = test system: OVCAR-5 ovarian
[36] = test system: OVCAR-8 ovarian
[37] = test system: PC-3 prostate
[38] = test system: RPMI-8226 leukemia
[39] = test system: RXF 393 renal
[40] = test system: SF-268 CNS
[41] = test system: SF-295 CNS
[42] = test system: SK-MEL-2 melanoma
[43] = test system: SK-MEL-28 melanoma
[44] = test system: SK-MEL-5 melanoma
[45] = test system: SK-OV-3 ovarian
[46] = test system: SNB-19 CNS
[47] = test system: SNB-75 CNS
[48] = test system: SR leukemia
[49] = test system: SW-620 colon
[50] = test system: T-47D breast
[51] = test system: TK-10 renal
[52] = test system: U251 CNS
[53] = test system: UACC-257 melanoma
[54] = test system: UACC-62 melanoma
[55] = test system: UO-31 renal

Measured: TGI

COc1cc(Oc2nc3ccccc3nc2C(=O)O)cc(OC)c1OC
> 100 µM: all assays above
